Assay results published in the supplement of paper PMC10331698.
± gives the standard deviation of the averaged measurements.

What was measured:
Test in all cases: level (log10 ratio to DMSO vehicle control); higher = higher biomarker level / cell amount than vehicle control
[1] = compound: C=C(C)C(=O)OCCC(F)(F)C(F)(F)C(F)(F)C(F)(F)C(F)(F)C(F)(F)F [6:2 Fluorotelomer methacrylate]; settings: in DMSO
Method: (§1)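 BioMAP Diversity Plus panel of 12 human primary cell co-culture systems (3C, 4H, LPS, SAg, BT, BF4T, BE3C, CASM3C, HDF3CGF, KF3CT, MyoF, Mphg). Compounds were added 1 h before stimulation and left for 24 h (MyoF 48 h; BT 72 h for soluble read-outs or 6 d for IgG). Biomarkers were read by ELISA, cytotoxicity by SRB, PBMC viability and proliferation by Alamar Blue. Each well value was divided by the mean of 8 DMSO control wells on the same plate and log10 transformed; duplicate blinded samples were tested at 4 concentrations.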

[2] = compound: C=CC(=O)OCC(F)(F)C(F)(F)C(F)(F)COC(=O)C=C [1H,1H,5H,5H-Perfluoro-1,5-pentanediol diacrylate]; settings: 6700 nM; in DMSO
Method: as §1

[3] = compound: COC(=O)C(F)(F)C(F)(F)OC(F)(C(F)(F)F)C(F)(F)OC(F)=C(F)F [Methyl perfluoro(3-(1-ethenyloxypropan-2-yloxy)propanoate)]; settings: in DMSO
Method: as §1

[4] = compound: FC(F)(F)C(F)(F)C(F)(F)C(F)(F)C(F)(F)C(F)(F)C(F)(F)I [1-Iodopentadecafluoroheptane]; settings: in DMSO
Method: as §1

[5] = compound: FC(F)(F)C(F)(F)C(F)(F)C(F)(F)C(F)(F)C(F)(F)CC1CO1 [3-(Perfluorohexyl)-1,2-epoxypropane]; settings: in DMSO
Method: as §1

[6] = compound: FC(F)(F)C(F)(F)C(F)(F)CC1CO1 [1H,1H-Heptafluorobutyl epoxide]; settings: in DMSO
Method: as §1

[7] = compound: FC(F)(F)C(F)(F)C(F)(F)CI [Heptafluorobutyl iodide]; settings: in DMSO
Method: as §1

[8] = compound: FC(F)(F)C(F)(F)CNCC(F)(F)C(F)(F)F [Bis(1H,1H-perfluoropropyl)amine]; settings: in DMSO
Method: as §1

[9] = compound: NC(=O)C(F)(F)C(F)(F)C(F)(F)C(F)(F)C(N)=O [Octafluoroadipamide]; settings: in DMSO
Method: as §1

[10] = compound: NC(=O)C(F)(F)C(F)(F)C(F)(F)C(F)(F)F [Nonafluoropentanamide]; settings: in DMSO
Method: as §1

[11] = compound: NC(=O)C(F)(F)C(F)(F)C(F)(F)C(F)F; settings: in DMSO
Method: as §1

[12] = compound: NS(=O)(=O)C(F)(F)C(F)(F)C(F)(F)C(F)(F)C(F)(F)C(F)(F)F [Perfluorohexanesulfonamide]; settings: in DMSO
Method: as §1

[13] = compound: O=C(O)C(F)(F)C(F)(F)C(F)(F)C(F)(F)C(F)(F)C(F)(F)C(F)(F)C(F)(F)C(F)(F)C(F)F [11-H-Perfluoroundecanoic acid]; settings: in DMSO
Method: as §1

[14] = compound: O=C(O)C=CC(F)(C(F)(F)F)C(F)(F)F [3-(Perfluoroisopropyl)-2-propenoic acid]; settings: in DMSO
Method: as §1

[15] = compound: O=S(=O)(Cl)C(F)(F)C(F)(F)C(F)(F)C(F)(F)C(F)(F)C(F)(F)C(F)(F)C(F)(F)F [Perfluoro-1-octanesulfonyl chloride]; settings: in DMSO
Method: as §1

[16] = compound: O=S(=O)(F)C(F)(F)C(F)(F)C(F)(F)C(F)(F)C(F)(F)C(F)(F)C(F)(F)C(F)(F)F [Perfluorooctanesulfonyl fluoride]; settings: in DMSO
Method: as §1

[17] = compound: O=S(=O)(O)C(F)(F)C(F)(F)C(F)(F)C(F)(F)C(F)(F)C(F)(F)C(F)(F)C(F)(F)C(F)(F)C(F)(F)F [Sodium perfluorodecanesulfonate]; settings: in DMSO
Method: as §1

[18] = compound: O=S(=O)(O)CCC(F)(F)C(F)(F)C(F)(F)C(F)(F)C(F)(F)C(F)(F)F [6:2 Fluorotelomer sulfonic acid]; settings: in DMSO
Method: as §1

[19] = compound: OCC(F)(F)C(F)(F)C(F)(F)CO [Hexafluoroamylene glycol]; settings: in DMSO
Method: as §1

BE3C:CD54/ICAM-1
level (log10) ([1]; 6700 nM): -0.0055 ± 0.0064
level (log10) ([1]; 20000 nM): -0.0085 ± 0.011
level (log10) ([1]; 60000 nM): 0.015 ± 0.0099
level (log10) [2]: -0.018 ± 0.014
level (log10) ([3]; 6700 nM): -0.0205 ± 0.005
level (log10) ([3]; 20000 nM): -0.017 ± 0.0014
level (log10) ([4]; 6700 nM): -0.0125 ± 0.026
level (log10) ([4]; 20000 nM): 0.006 ± 0.013
level (log10) ([5]; 6700 nM): 0.0035 ± 0.00071
level (log10) ([5]; 20000 nM): 0 ± 0.0071
level (log10) ([5]; 60000 nM): -0.0005 ± 0.005
level (log10) ([6]; 6700 nM): 0.001 ± 0.0028
level (log10) ([6]; 20000 nM): -0.013 ± 0.034
level (log10) ([6]; 60000 nM): 0.0055 ± 0.015
level (log10) ([7]; 6700 nM): 0.013 ± 0.021
level (log10) ([7]; 20000 nM): 0.005 ± 0.0071
level (log10) ([7]; 60000 nM): 0.0085 ± 0.0078
level (log10) ([8]; 6700 nM): -0.012 ± 0.0085
level (log10) ([8]; 20000 nM): -0.008 ± 0.0099
level (log10) ([8]; 60000 nM): 0.0085 ± 0.044
level (log10) ([9]; 6700 nM): -0.0135 ± 0.025
level (log10) ([9]; 20000 nM): -0.0185 ± 0.016
level (log10) ([9]; 60000 nM): 0.016 ± 0.034
level (log10) ([10]; 6700 nM): 0.0025 ± 0.012
level (log10) ([10]; 20000 nM): -0.009 ± 0.028
level (log10) ([10]; 60000 nM): 0.0025 ± 0.03
level (log10) ([11]; 6700 nM): -0.006 ± 0.0042
level (log10) ([11]; 20000 nM): -0.002 ± 0.0042
level (log10) ([11]; 60000 nM): 0.0155 ± 0.016
level (log10) ([12]; 6700 nM): -0.0105 ± 0.025
level (log10) ([12]; 20000 nM): 0.003 ± 0.0028
level (log10) ([12]; 60000 nM): 0.017 ± 0.013
level (log10) ([13]; 6700 nM): -0.0105 ± 0.0021
level (log10) ([13]; 20000 nM): -0.35 ± 0.031
level (log10) ([14]; 6700 nM): 0.002 ± 0.0057
level (log10) ([14]; 20000 nM): -0.005
level (log10) ([14]; 60000 nM): 0.004 ± 0.0071
level (log10) ([15]; 6700 nM): -0.0045 ± 0.0021
level (log10) ([15]; 20000 nM): 0.036 ± 0.0071
level (log10) ([15]; 60000 nM): -0.69 ± 0.11
level (log10) ([16]; 6700 nM): -0.0035 ± 0.019
level (log10) ([16]; 20000 nM): -0.0055 ± 0.0092
level (log10) ([16]; 60000 nM): 0.0045 ± 0.026
level (log10) ([17]; 1500 nM): 0.0015 ± 0.029
level (log10) ([17]; 4400 nM): -0.0075 ± 0.00071
level (log10) ([17]; 13000 nM): 0.034
level (log10) ([17]; 40000 nM): 0.0425 ± 0.011
level (log10) ([18]; 6700 nM): -0.006 ± 0.0085
level (log10) ([18]; 20000 nM): -0.0145 ± 0.005
level (log10) ([18]; 60000 nM): -0.04 ± 0.023
level (log10) ([19]; 6700 nM): 0.007 ± 0.016
level (log10) ([19]; 20000 nM): 0.002 ± 0.0057
level (log10) ([19]; 60000 nM): -0.001 ± 0.0014

BE3C:CXCL9/MIG
level (log10) ([1]; 6700 nM): 0.0055 ± 0.028
level (log10) ([1]; 20000 nM): 0.008 ± 0.035
level (log10) ([1]; 60000 nM): 0.015 ± 0.045
level (log10) [2]: 0.0095 ± 0.0021
level (log10) ([3]; 6700 nM): -0.0035 ± 0.0035
level (log10) ([3]; 20000 nM): -0.019 ± 0.0099
level (log10) ([4]; 6700 nM): -0.0035 ± 0.021
level (log10) ([4]; 20000 nM): 0.003 ± 0.013
level (log10) ([5]; 6700 nM): 0.0095 ± 0.018
level (log10) ([5]; 20000 nM): 0.0185 ± 0.016
level (log10) ([5]; 60000 nM): 0.023 ± 0.0057
level (log10) ([6]; 6700 nM): -0.0125 ± 0.0064
level (log10) ([6]; 20000 nM): 0 ± 0.0028
level (log10) ([6]; 60000 nM): -0.0075 ± 0.0064
level (log10) ([7]; 6700 nM): -0.002 ± 0.0099
level (log10) ([7]; 20000 nM): -0.002 ± 0.0014
level (log10) ([7]; 60000 nM): 0.0065 ± 0.018
level (log10) ([8]; 6700 nM): -0.0065 ± 0.0035
level (log10) ([8]; 20000 nM): -0.0055 ± 0.00071
level (log10) ([8]; 60000 nM): 0.005 ± 0.021
level (log10) ([9]; 6700 nM): -0.008
level (log10) ([9]; 20000 nM): -0.007 ± 0.0057
level (log10) ([9]; 60000 nM): 0.006 ± 0.0071
level (log10) ([10]; 6700 nM): 0.015 ± 0.0071
level (log10) ([10]; 20000 nM): -0.001 ± 0.014
level (log10) ([10]; 60000 nM): 0.014
level (log10) ([11]; 6700 nM): 0.012 ± 0.024
level (log10) ([11]; 20000 nM): 0.009 ± 0.0071
level (log10) ([11]; 60000 nM): 0.006 ± 0.0085
level (log10) ([12]; 6700 nM): -0.0025 ± 0.0064
level (log10) ([12]; 20000 nM): -0.0005 ± 0.0078
level (log10) ([12]; 60000 nM): -0.0065 ± 0.0078
level (log10) ([13]; 6700 nM): -0.004 ± 0.0057
level (log10) ([13]; 20000 nM): -0.905 ± 0.047
level (log10) ([14]; 6700 nM): 0.0135 ± 0.015
level (log10) ([14]; 20000 nM): 0.016 ± 0.017
level (log10) ([14]; 60000 nM): 0.0235 ± 0.013
level (log10) ([15]; 6700 nM): -0.0025 ± 0.00071
level (log10) ([15]; 20000 nM): -0.004 ± 0.0042
level (log10) ([15]; 60000 nM): -0.724 ± 0.11
level (log10) ([16]; 6700 nM): 0.0035 ± 0.005
level (log10) ([16]; 20000 nM): -0.0025 ± 0.0064
level (log10) ([16]; 60000 nM): 0.007 ± 0.017
level (log10) ([17]; 1500 nM): 0.016 ± 0.0042
level (log10) ([17]; 4400 nM): 0.008 ± 0.0085
level (log10) ([17]; 13000 nM): 0.014 ± 0.0085
level (log10) ([17]; 40000 nM): 0.0005 ± 0.0092
level (log10) ([18]; 6700 nM): -0.005 ± 0.0014
level (log10) ([18]; 20000 nM): -0.004 ± 0.0042
level (log10) ([18]; 60000 nM): 0.0015 ± 0.011
level (log10) ([19]; 6700 nM): -0.003 ± 0.0085
level (log10) ([19]; 20000 nM): -0.0055 ± 0.0035
level (log10) ([19]; 60000 nM): 0.0025 ± 0.011
